Measured values published in patent US9365551B2, “2-(benzyloxy) benzamides as LRRK2 kinase inhibitors” (Glaxo Group Limited, priority 2010, dated 2016).

What was measured:
[1] = molecular target: T1, 6His-Tev-LRRK2 (1326-2527) (Homo sapiens, UniProt Q5S007); assay: LRRK2 peptide substrate assay; format: biochemical; conditions: mean pIC50 of multiple test results
T1 construct: A LRRK2 cDNA encoding residues 1326-2527 was received from Dundee University; made in house; host or cells: Spodoptera frugiperda (Sf9) insect cells, baculovirus (pFB-HTb)
T1 sequence (Q5S007 1326-2527): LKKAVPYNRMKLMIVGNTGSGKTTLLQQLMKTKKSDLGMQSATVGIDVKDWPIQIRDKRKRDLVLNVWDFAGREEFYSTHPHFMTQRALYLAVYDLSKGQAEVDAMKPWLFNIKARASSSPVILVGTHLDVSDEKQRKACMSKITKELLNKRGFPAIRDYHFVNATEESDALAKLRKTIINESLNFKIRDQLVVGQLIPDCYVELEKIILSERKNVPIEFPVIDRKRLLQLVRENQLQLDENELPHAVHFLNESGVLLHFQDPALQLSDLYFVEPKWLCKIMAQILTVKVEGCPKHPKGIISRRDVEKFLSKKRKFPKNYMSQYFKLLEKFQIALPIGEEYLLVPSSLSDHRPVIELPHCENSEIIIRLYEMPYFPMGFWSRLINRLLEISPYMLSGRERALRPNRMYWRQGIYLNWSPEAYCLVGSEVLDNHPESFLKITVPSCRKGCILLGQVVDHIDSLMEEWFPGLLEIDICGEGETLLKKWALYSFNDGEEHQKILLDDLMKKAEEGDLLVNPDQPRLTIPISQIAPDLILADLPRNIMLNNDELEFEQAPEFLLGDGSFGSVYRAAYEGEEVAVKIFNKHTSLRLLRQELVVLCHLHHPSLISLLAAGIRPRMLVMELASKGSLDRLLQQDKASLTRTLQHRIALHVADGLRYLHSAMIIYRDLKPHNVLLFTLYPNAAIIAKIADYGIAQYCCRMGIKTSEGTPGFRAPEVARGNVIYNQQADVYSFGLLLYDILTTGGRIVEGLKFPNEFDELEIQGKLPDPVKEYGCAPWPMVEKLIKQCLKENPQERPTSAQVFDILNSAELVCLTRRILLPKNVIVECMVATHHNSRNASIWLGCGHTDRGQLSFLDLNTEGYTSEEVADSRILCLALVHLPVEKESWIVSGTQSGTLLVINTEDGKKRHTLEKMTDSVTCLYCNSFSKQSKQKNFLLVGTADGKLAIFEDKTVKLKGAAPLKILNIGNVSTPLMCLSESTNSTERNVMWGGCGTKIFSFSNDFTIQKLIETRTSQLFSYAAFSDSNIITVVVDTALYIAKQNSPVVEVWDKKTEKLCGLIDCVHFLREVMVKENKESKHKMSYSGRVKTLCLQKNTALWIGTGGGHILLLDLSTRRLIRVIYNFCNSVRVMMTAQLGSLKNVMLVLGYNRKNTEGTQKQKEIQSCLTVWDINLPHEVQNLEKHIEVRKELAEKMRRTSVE
Procedure: (§1) Compounds of formula (I) may be tested for in vitro kinase activity in accordance with the following assays, using the non natural, in vitro, substrates moesin and the Longer Biotin-LRRKtide. Moesin and a shorter version of the peptide were identified as substrates in Jaleel et al. (2007, Biochem J, 405: 307-317).
LRRK2 Peptide Substrate Assay
a) 100 nl of a 1:4 serial dilution of test compound with a top final assay concentration of 30 μM is added to certain wells in a low volume 384 well black plate. 100 nl of DMSO is used in certain wells as controls.
(§2) b) 3 μl enzyme solution (80 nM purified recombinant 6His-Tev-LRRK2 (1326-2527) in assay buffer: 50 mM Hepes (pH 7.2), 10 mM MgCl2, 150 mM NaCl, 5% glycerol, 0.0025% triton X-100 and 1 mM DTT) is added to certain wells. 3 μl assay buffer is added to certain wells as a 100% inhibition (no enzyme) control. c) After incubation at room temperature for 30 minutes, 3 μl substrate solution (2 μM Biotin-LRRKtide peptide substrate and ATP at Km in assay buffer) is added to each well. Plates are then incubated for a further 1-2 hours at room temperature (incubation time varies depending upon rate and linearity of reaction with differing enzyme batches). d) 6 μl detection solution (50 nM Streptavidin SureLight® APC (PerkinElmer), 4 nM Eu-W1024 labelled anti-rabbit IgG antibody (PerkinElmer), 1:500 dilution (dilution determined on a batch to batch basis) of Phospho-Ezrin (Thr567)/Radixin (Thr564)/Moesin (Thr558) Polyclonal Antibody (New England Biolabs) and 60 mM EDTA in buffer: 40 mM Hepes (pH 7.2), 150 mM NaCl, 0.03% BSA) is added to each well. Plates are then incubated for a further 2 hours at room temperature before reading on a suitable plate reader (Excitation 330 nm, emission 620 nm (Eu) and 665 nm (APC)). Data is analysed using ActivityBase software (IDBS). LRRK2 AlphaScreen Desensitised Protein Substrate Assay a) 100 nl of a 1:4 serial dilution of test compound with a top final assay concentration of 30 μM is added to certain wells in a low volume 384 well black plate. 100 nl of DMSO is used in certain wells as controls. b) 3 μl enzyme solution (80 nM purified recombinant 6His-Tev-LRRK2 (1326-2527) in assay buffer: 50 mM Hepes (pH 7.2), 10 mM MgCl2, 150 mM NaCl, 5% glycerol, 0.0025% triton X-100 and 1 mM DTT) is added to certain wells. 3 μl assay buffer is added to certain wells as a 100% inhibition (no enzyme) control. c) After incubation at room temperature for 30 minutes, 3 μl substrate solution (200 nM GST-PS-Moesin (400-577) and 2 mM ATP in assay buffer) is added to each well. Plates are then incubated for 20 minutes at room temperature. d) 6 μl detection solution (1:250 dilution of AlphaLisa Protein A Acceptor beads (PerkinElmer), 1:64 dilution of AlphaLisa Gluthathione Donor beads (PerkinElmer) and 1:600 dilution (dilution determined on a batch to batch basis) of Phospho-Ezrin (Thr567)/Radixin (Thr564)/Moesin (Thr558) Polyclonal Antibody (New England Biolabs) in a buffer: 50 mM Hepes (pH 7.5), 250 mM NaCl, 60 mM EDTA, 1% PEG and 0.01% Brij 35) is added to each well. Plates are then incubated for a further 2 hours at room temperature in the dark before reading on an EnVision™ plate reader with AlphaScreen HTS turbo option module and AlphaScreen settings. Data is analysed using ActivityBase software (IDBS). Pharmacological Data

[2] = molecular target: T1, 6His-Tev-LRRK2 (1326-2527); assay: LRRK2 AlphaScreen desensitised protein substrate assay; format: biochemical; conditions: mean pIC50 of multiple test results
Procedure: as §1, §2

[3] = Biotin-LRRKtide peptide substrate, ATP at Km, read-out: LRRK2 peptide substrate assay (pIC50) (converted)
[4] = stated as threshold, read-out: pIC50 in the LRRK2 peptide substrate assay (bounds) (converted)
[5] = GST-PS-Moesin (400-577) substrate, 2 mM ATP, read-out: LRRK2 alphascreen desensitized protein substrate assay (pIC50) (converted)
[6] = stated as threshold, read-out: pIC50 in the LRRK2 alphascreen desensitised protein substrate assay (bounds) (converted)

| Structure (SMILES) | IC50 [1, 3] | IC50 [1, 4] | IC50 [2, 5] | IC50 [2, 6] |
| --- | --- | --- | --- | --- |
| Cc1cc(OCc2ccccc2)c(C(=O)Nc2cccnc2)cc1-c1cnn(C)c1 [Example 7, 4-Methyl-5-(1-methyl-1H-pyrazol-4-yl)-2-[(phenylmethyl)oxy]-N-3-pyridinylbenzamide] | 15.8 nM | ≤ 100 nM | 158 nM | ≤ 316 nM |
| O=C(Nc1ccnnc1)c1cc(Br)c(CN2CCOCC2)cc1OCc1ccccc1 [Example 1, 5-Bromo-4-(4-morpholinylmethyl)-2-[(phenylmethyl)oxy]-N-4-pyridazinylbenzamide] | – | ≤ 100 nM | – | ≤ 25100 nM |
| Cn1cc(-c2cc(C(=O)Nc3ccnnc3)c(OCc3ccccc3)cc2C(=O)N2CCOCC2)cn1 [Example 24, 5-(1-Methyl-1H-pyrazol-4-yl)-4-(4-morpholinylcarbonyl)-2-[(phenylmethyl)oxy]-N-4-pyridazinylbenzamide] | – | ≤ 1260 nM | – | ≤ 25100 nM |
| Cc1nocc1NC(=O)c1cc(Cl)c(C(=O)N2CCC(F)(F)C2)cc1OCc1ccccc1 [Example 43, 5-Chloro-4-[(3,3-difluoro-1-pyrrolidinyl)carbonyl]-N-(3-methyl-4-isoxazolyl)-2-[(phenylmethyl)oxy]benzamide] | – | ≤ 100 nM | – | ≤ 25100 nM |
| Cn1cc(-c2cc(C(=O)Nc3cccc(Cl)c3)c(OCc3ccc(F)cc3)cc2C(=O)N2CCOCC2)cn1 [Example 48, N-(3-chlorophenyl)-2-((4-fluorobenzyl)oxy)-5-(1-methyl-1H-pyrazol-4-yl)-4-(morpholine-4-carbonyl)benzamide] | 6.31 nM | ≤ 10 nM | 15.8 nM | ≤ 316 nM |
| Cc1nocc1NC(=O)c1cc(-c2cnn(C)c2)c(CN2CCOCC2)cc1OCc1ccc(F)cc1F [Example 22, 2-{[(2,4-Difluorophenyl)methyl]oxy}-N-(3-methyl-4-isoxazolyl)-5-(1-methyl-1H-pyrazol-4-yl)-4-(4-morpholinylmethyl)benzamide] | – | > 25100 nM | – | ≤ 25100 nM |
| Cc1cc(OCc2ccccc2)c(C(=O)Nc2ccnnc2)cc1-c1cnn(C)c1 [Example 8, 4-Methyl-5-(1-methyl-1H-pyrazol-4-yl)-2-[(phenylmethyl)oxy]-N-4-pyridazinylbenzamide] | – | ≤ 100 nM | – | ≤ 25100 nM |
| Cn1cc(-c2cc(C(=O)Nc3cccnc3)c(OCc3ccccc3)cc2CN2CCOCC2)cn1 [Example 4, 5-(1-Methyl-1H-pyrazol-4-yl)-4-(4-morpholinylmethyl)-2-[(phenylmethyl)oxy]-N-3-pyridinylbenzamide] | 15.8 nM | ≤ 100 nM | 126 nM | ≤ 316 nM |

Continued, in another order:

| IC50 [1, 3] | IC50 [1, 4] | Structure (SMILES) | IC50 [2, 5] | IC50 [2, 6] |
| --- | --- | --- | --- | --- |
| 63.1 nM | ≤ 100 nM | Cn1cc(-c2cc(C(=O)Nc3cccnc3)c(OCc3ccc(F)cc3F)cc2CN2CCOCC2)cn1 [Example 20, 2-{[(2,4-Difluorophenyl)methyl]oxy}-5-(1-methyl-1H-pyrazol-4-yl)-4-(4-morpholinylmethyl)-N-3-pyridinylbenzamide] | 200 nM | ≤ 316 nM |
| 10 nM | ≤ 10 nM | O=C(Nc1cccnc1)c1cc(Br)c(CN2CCOCC2)cc1OCc1ccccc1 [Example 2, 5-Bromo-4-(4-morpholinylmethyl)-2-[(phenylmethyl)oxy]-N-3-pyridinylbenzamide] | 251 nM | ≤ 316 nM |
| 50.1 nM | ≤ 100 nM | O=C(Nc1ccnnc1)c1cc(Cl)c(C(=O)N2CCC(F)(F)C2)cc1OCc1ccccc1 [Example 42, 5-Chloro-4-[(3,3-difluoro-1-pyrrolidinyl)carbonyl]-2-[(phenylmethyl)oxy]-N-4-pyridazinylbenzamide] | 501 nM | ≤ 25100 nM |
| 10 nM | ≤ 10 nM | Cc1cc(C(=O)Nc2ccnnc2)c(OCc2ccccc2)cc1-c1cnn(C)c1 [Example 12, 5-Methyl-4-(1-methyl-1H-pyrazol-4-yl)-2-[(phenylmethyl)oxy]-N-4-pyridazinylbenzamide] | 100 nM | ≤ 316 nM |
| – | ≤ 1260 nM | O=C(Nc1ccnnc1)c1cc(C(F)(F)F)c(CN2CCOCC2)cc1OCc1ccccc1 [Example 34, 4-(4-Morpholinylmethyl)-2-[(phenylmethyl)oxy]-N-4-pyridazinyl-5-(trifluoromethyl)benzamide] | – | ≤ 25100 nM |
| 12.6 nM | ≤ 100 nM | Cc1nocc1NC(=O)c1cc(-c2cnn(C)c2)c(CN2CCOCC2)cc1OCc1ccc(F)cc1 [Example 18, 2-{[(4-Fluorophenyl)methyl]oxy}-N-(3-methyl-4-isoxazolyl)-5-(1-methyl-1H-pyrazol-4-yl)-4-(4-morpholinylmethyl)benzamide] | 398 nM | ≤ 25100 nM |
| – | ≤ 1260 nM | O=C(Nc1cccnc1)c1cc(C(F)(F)F)c(CN2CCCCC2)cc1OCc1ccccc1 [Example 35, 2-[(Phenylmethyl)oxy]-4-(1-piperidinylmethyl)-N-3-pyridinyl-5-(trifluoromethyl)benzamide] | – | ≤ 25100 nM |
| – | ≤ 100 nM | Cn1cc(-c2cc(C(=O)Nc3cccnc3)c(OCc3ccc(F)cc3)cc2C(=O)N2CCOCC2)cn1 [Example 26, 2-{[(4-Fluorophenyl)methyl]oxy}-5-(1-methyl-1H-pyrazol-4-yl)-4-(4-morpholinylcarbonyl)-N-3-pyridinylbenzamide] | – | ≤ 316 nM |
